Results on three compounds are retold here after patent US8222022B2, “Tri-functionalized cryptophane biosensors” (The Trustees of the University of Pennsylvania, priority 2008, dated 2012).

The conditions of series [1]: comparison value; cited from earlier work.
The nature of series [2]: Xenon binding by fluorescence quenching. Particulars: 293 K, phosphate buffer. The procedure: Steady-state fluorescence spectra were acquired using a Varian Cary Eclipse fluorimeter equipped with a Peltier multicell holder for temperature control. Concentration measurements necessary for fluorescence work were obtained using an Agilent 8453 UV-Vis spectrophotometer. Xenon binding determination by fluorescence quenching was performed. The quantum yield of tri-acid cryptophane was measured relative to tryptophan.
The xenon affinity of tricarboxylate cryptophane was studied by fluorescence quenching (FIG. 2) and isothermal titration calorimetry (ITC) (FIG. 3). […] As in a previous fluorescence quenching study with TTPC, temperature-equilibrated solutions of xenon-saturated water were added sequentially by syringe to a septum-sealed fluorescence cuvette and fluorescence intensity measurements were taken. […]
A saturated xenon solution at 310 K ([Xe]=3.3 mM) was titrated into the septum-sealed cuvette by gas-tight syringe. […] In all cases, fluorescence spectra were collected after thermal equilibration at 293 K (FIG. 2)
The fluorescence maxima were fitted to a single-site binding model using the following relationship.
At xenon saturation, [Xe]=5.05 mM at 293 K and 1 atm, the cryptophane fluorescence was half quenched (Fo/F=2). No cryptophane impurities or concentration dependent phenomena were observed that might also contribute to partial fluorescence quenching. […]

Series [3] in a line: Xenon binding by isothermal titration calorimetry (ITC) in phosphate buffer. As to the method: ITC samples were prepared and experiments were performed using a MicroCal VP-ITC titration microcalorimeter (Northampton, Mass.) at 293 K. Standard protocols and data analysis were used. Control enthalpograms are given in the appended figures.
In order to confirm the association constants obtained by fluorescence quenching, ITC experiments were performed.
(§1) Xenon binding was also determined by isothermal titration calorimetry (ITC), which directly measured the heat released during Xe association. ITC measurements were undertaken in 20 mM, pH 7.5 phosphate buffer at 293 K and 310 K as well as in human plasma at 310 K (FIG. 3).
The association constants obtained from fits of ITC data at 293 K (KA=1.73×10^4 M^−1, Table 5) and fluorescence quenching were in excellent agreement. […] This was likely a consequence of the 20 water molecules that make up the first solvation sphere of the Xe atom in aqueous solution.
For orientation: ITC needs no label: the signal is the heat of the interaction.

A short description of series [4]: Aqueous solubility (visual observation of precipitation, dissolution in aqueous base). As to conditions: visual observation of precipitation during titration.
Description: Steric congestion near the carboxylic acid group decreases acidity by preventing efficient solvation of the carboxylate anion. […] Each acid group attached to TAAC can be approximated as being an acetic acid attached to a ˜1 nm diameter nonpolar sphere. Water molecules surrounding the nonpolar cryptophane surface must be ordered, a consequence of the hydrophobic effect. Carboxylate solvation must directly compete with this ordered solvation sphere necessary for the cryptophane core.
The nature of series [5]: Xenon binding by ITC in human plasma. As to conditions: Plasma 310 K. As to the method: as §1
From Table 5 and the known thermodynamics of xenon partitioning into water, an upper limit of ΔH=−7.5 kcal/mol was calculated for the enthalpy of xenon binding to I. Thus, the measured ΔH of −6.04 kcal/mol, although larger than in buffer, appeared reasonable.

A further series concerns the target human isozyme II (CAII) (Homo sapiens, UniProt P00918). Briefly: Binding to carbonic anhydrase II in solution (ITC). As to conditions: read-out: KD against CAII. From the text: The ^129Xe isotope has a spin-½ nucleus, a >200 ppm chemical shift window in water, and a natural isotopic abundance of 26% (commercially available up to 86%), which makes it an appealing biomolecular probe for MRI. Moreover, ^129Xe can be laser polarized to enhance MRI signals ˜10,000-fold.

The mark [6] stands for this setting: 293 K, 20 mM pH 7.5 phosphate buffer.

Take `COc1ccccc1OCC(=O)O` [2-(2-methoxyphenoxy)acetic acid]: in series [1], the “pKa of analogous acid (comparison)” value is 3.23.

In general, pKa refers to the pH at which an ionisable group is half protonated. In the case of `COc1cc2c3cc1OCCOc1cc4c(cc1OCC(=O)O)Cc1cc5c(OCC(=O)O)cc1Cc1cc(c(OCC(=O)O)cc1C4)OCCOc1cc(c(cc1OC)C3)Cc1cc(OC)c(cc1C2)OCCO5` [TAAC, Tri-Acetic Acid Cryptophane], in series [2], the “association constant (Xe) by fluorescence quenching” value was 33,000±2000 M^−1. For the same compound, the “additional stabilization of the Xe@TAAC complex relative to Xe@TTPC” value in series [3] (293 K) is -0.37 kcal/mol. In series [3] (setting [6]), the “xenon association constant KA by ITC” value was 33,000±3000 M^−1, the “ΔG of xenon binding” value is -6.09 kcal/mol, the “ΔH of xenon binding” value was -4.3 ± 0.7 kcal/mol and the “ΔS of xenon binding” value stood at 5.9 cal*mol^−1*K^−1. Besides, the xenon association constant in series [3] (293 K, by ITC and fluorescence quenching assay) is given as 33,000 M^−1. Further, the xenon association constant in series [3] (310 K, extrapolated from the 293 K value) is ~50,000 M^−1. For the same compound, in series [3] (ITC at 293 K (Table 2)), the KA worked out at 3.33 ± 0.28 M^−1 × 10^4, the TΔS came to 1.72 kcal/mol, the ΔG was -6.06 kcal/mol and the ΔH was -4.34 ± 0.66 kcal/mol. Further, the pKa in the series “Acid-base titration” worked out at 4.1. Besides, in series [4], the “deprotonations required for aqueous solubility” value is reported as “required all three acids to be deprotonated for aqueous solubility”.

The Kd is the constant that tells how readily two partners part at equilibrium. Turning to “tri-triazole propionate cryptophane [TTPC]”, the “association constant (Xe) by fluorescence quenching” value in series [2] is 17,000±1800 M^−1. Besides, in series [3] (Buffer 293 K), the KA turned out to be 1.73 ± 0.17 M^−1 × 10^4, the TΔS was 2.55 kcal/mol, the ΔG was -5.69 kcal/mol and the ΔH was -3.14 ± 0.20 kcal/mol. In series [3] (Buffer 310 K), this compound had a KA of 3.01 ± 0.26 M^−1 × 10^4, a TΔS of 2.80 kcal/mol, a ΔG of -6.36 kcal/mol and a ΔH of -3.56 ± 0.13 kcal/mol. In series [3] (ITC at 293 K (Table 2)), this compound returned a KA of 1.70 M^−1 × 10^4, a TΔS of 2.55 kcal/mol, a ΔG of -5.69 kcal/mol and a ΔH of -3.14 kcal/mol. Moreover, in series [3] (calculated from Table 5 and known thermodynamics of xenon partitioning into water), the “upper limit of ΔH for the enthalpy of xenon binding” value was at most -7.5 kcal/mol. Moreover, the “ΔS of xenon binding” value in series [3] (phosphate buffer, 293 and 310 K) is recorded as 9.0 cal/mol K. Also, in series [5], the KA is listed as 2.19 ± 0.22 M^−1 × 10^4, the TΔS is 0.12 kcal/mol, the “TΔS (contribution of entropy)” value is listed as 0.12 and the “measured ΔH of xenon binding” value is -6.04 kcal/mol. In series [5], this compound yielded a ΔG of -6.16 kcal/mol and a ΔH of -6.04 ± 0.33 kcal/mol. Besides, the Kd at human isozyme II (CAII) is 60 ± 20 nM.
